Laboratory results from ChEMBL document CHEMBL1142122, “Extending the record of meroditerpenes from Cacospongia marine sponges” (2007).
Converted amounts (≈) assume the structure as drawn.

Experiments:
Type in all cases: functional
Bacillus subtilis = test: Antimicrobial activity against Bacillus subtilis
Escherichia coli = test: Antimicrobial activity against Escherichia coli
[1] = test system: Staphylococcus epidermidis; test: Antimicrobial activity against Staphylococcus epidermidis

Row | MIC (Bacillus subtilis) | MIC (Escherichia coli) | MIC [1] | Structure (SMILES)
1 | > 400 µg/mL | > 400 µg/mL | 2.5 µg/mL (≈ 6.09 µM) | C=C(C)CCC[C@@]1(C)CCC[C@@]2(C)[C@H](Cc3cc(C(=O)O)ccc3O)C(=C)CC[C@H]12
2 | > 400 µg/mL | > 400 µg/mL | 20 µg/mL (≈ 48.7 µM) | CC1=C(CC/C(C)=C/CC/C(C)=C/Cc2cc(C(=O)O)ccc2O)C(C)(C)CCC1 [CACOSPONGIN D]
3 | > 400 µg/mL | > 400 µg/mL | 5 µg/mL (≈ 13.1 µM) | CC1=C(CC/C(C)=C/CC/C(C)=C/Cc2cc(O)ccc2O)C(C)(C)CCC1 [JASPAQUINOL]
4 | > 400 µg/mL | > 400 µg/mL | 2.5 µg/mL (≈ 6.09 µM) | CC(C)=CCC[C@@]1(C)CCC[C@]2(C)[C@@H](Cc3cc(C(=O)O)ccc3O)C(C)=CC[C@@H]12 [JASPIC ACID]
